Data reported in publication PMC9490236, “Accurate de novo design of membrane-traversing macrocycles” (Cell, 2022).
Where “and” joins values, the source holds several entries; their conditions need not be identical. Equal entries are not always repeated. Where two headings read alike, the source gives them in different places.

Assay: Pharmacokinetics and oral bioavailability of D8.3.p1 and D10.1 in Balb/C female mice (PO, SQ, IV)
Assay type: in vivo
Protocol: In vivo bioavailability assays were conducted in mice and rats. D8.3.p1 and D10.1 were studied in female Balb/C mice by van Voorhis group at University of Washington. D11.2 was evaluated in Sprague Dawley (SD) rats by Robert Griffin’s group at Takeda Pharmaceuticals. D11.3 was studied in the male swiss albino mice by the contract research organization, GVK Biosciences Pvt. Ltd., Hyderabad, India. All animals used in these studies were handled in strict accordance with practices made to minimize suffering. All animal experiments conducted at the University of Washington, USA, and Takeda Pharmaceuticals, USA were approved by the Institutional Animal Care and Use Committee. Animal studies at GVK Biosciences were reviewed and approved by the Institutional Animal Ethics Committee of GVK Biosciences. We selected four designed macrocycles with diverse structures and in vitro rates of permeability for in vivo oral bioavailability studies in the rodent models. Due to the intensive resource requirements for such studies, these studies were conducted by three different research groups. D8.3.p1 and D10.1 were studied in female Balb/C mice by van Voorhis group at University of Washington. D11.2 was evaluated in Sprague Dawley (SD) rats by Robert Griffin’s group at Takeda Pharmaceuticals. D11.3 was studied in the male swiss albino mice by the contract research organization, GVK Biosciences Pvt. Ltd., Hyderabad, India. […] Blood samples were collected at multiple time points and plasma was separated from whole blood using centrifugation and stored at -80°C. […] Samples were mixed, centrifuged, and supernatant harvested for LC-MS analysis. For RP-HPLC analysis, peptides were evaluated using Agilent ZORBAX Eclipse Plus C18 1.8 μm, 2.1 mm x 50 mm and Waters Xevo TQ-S micro Triple Quadrupole/ACQUITY UPLC H-Class. […] Pharmacokinetic parameters were modeled using the Phoenix WinNonlin software package. […]

[1] = D10.1 PO 12.2 mg/kg, individual mice M1, M2, M3, 12.2 mg/kg
[2] = D10.1 PO 12.2 mg/kg, mean n=3, 12.2 mg/kg
[3] = D10.1 SQ 12.2 mg/kg, individual mice M1, M2, M3
[4] = D10.1 SQ 12.2 mg/kg, individual mice M2, M3 (M1 NA)

CC[C@H](C)[C@@H]1NC(=O)[C@@H](CC(C)C)NC(=O)[C@H](CC(C)C)N(C)C(=O)[C@H](Cc2ccccc2)NC(=O)CN(C)C(=O)[C@@H]2CCCN2C(=O)[C@H](C(C)C)NC(=O)[C@H](Cc2ccccc2)N(C)C(=O)[C@H]2CCCN2C(=O)[C@H](CC(C)C)NC1=O [Design D10.1, DLEU ILE LEU DPRO *PHE VAL PRO *GLY PHE *LEU]
Plasma level (D10.1 PO 12.2 mg/kg, 15 min, individual mice M1, M2, M3, 12.2 mg/kg): 2260 nM
Plasma level (D10.1 PO 12.2 mg/kg, 15 min, mean n=3, 12.2 mg/kg): 2580 nM
Plasma level (D10.1 PO 12.2 mg/kg, 30 min, individual mice M1, M2, M3, 12.2 mg/kg): 2490 nM and 3640 nM and 2640 nM
Plasma level (D10.1 PO 12.2 mg/kg, 30 min, mean n=3, 12.2 mg/kg): 2920 nM
Plasma level (D10.1 PO 12.2 mg/kg, 60 min, individual mice M1, M2, M3, 12.2 mg/kg): 2140 nM and 1640 nM and 1570 nM
Plasma level (D10.1 PO 12.2 mg/kg, 60 min, mean n=3, 12.2 mg/kg): 1780 nM
Plasma level (D10.1 PO 12.2 mg/kg, 120 min, mean n=3, 12.2 mg/kg): 720 nM
Plasma level (D10.1 PO 12.2 mg/kg, 240 min, mean n=3, 12.2 mg/kg): 160 nM
Plasma level (D10.1 PO 12.2 mg/kg, 360 min, individual mice M1, M2, M3, 12.2 mg/kg): 0 nM and 100 nM
Plasma level (D10.1 PO 12.2 mg/kg, 360 min, mean n=3, 12.2 mg/kg): 70 nM
Plasma level (D10.1 PO 12.2 mg/kg, 1440 min, individual mice M1, M2, M3): 0 nM
Plasma level (D10.1 PO 12.2 mg/kg, 1440 min, mean n=3): 0 nM
Tmax (D10.1 PO 12.2 mg/kg, individual mice M1, M2, M3): 0.5 h
AUC0-∞ [1]: 226.62 µmol·min/L and 337.03 µmol·min/L and 276.18 µmol·min/L
AUC(0-t) [1]: 216.96 µmol·min/L and 327.78 µmol·min/L and 266.45 µmol·min/L
Cl/F [1]: 0.000944 L/min and 0.000635 L/min and 0.000775 L/min
T1/2 [1]: 1.051 h and 1.132 h
Cmax (D10.1 PO 12.2 mg/kg, individual mice M1, M2, M3, 12.2 mg/kg, read-out: Cmax): 3640 nM and 2640 nM
AUC0-∞ [2]: 279.94 µmol·min/L
AUC(0-t) [2]: 270.4 µmol·min/L
Plasma level (D10.1 SQ 12.2 mg/kg, 15 min, mean n=3): 2530 nM
Plasma level (D10.1 SQ 12.2 mg/kg, 30 min, individual mice M1, M2, M3): 1810 nM and 3690 nM and 5150 nM
Plasma level (D10.1 SQ 12.2 mg/kg, 30 min, mean n=3): 3550 nM
Plasma level (D10.1 SQ 12.2 mg/kg, 60 min, individual mice M1, M2, M3): 1870 nM and 4880 nM and 5030 nM
Plasma level (D10.1 SQ 12.2 mg/kg, 60 min, mean n=3): 3930 nM
Plasma level (D10.1 SQ 12.2 mg/kg, 360 min, mean): 2290 nM
Plasma level (D10.1 SQ 12.2 mg/kg, 1440 min, individual mice M1, M2, M3): 0 nM
Plasma level (D10.1 SQ 12.2 mg/kg, 1440 min, mean n=3): 10 nM
AUC(0-t) [3]: 730.93 µmol·min/L and 3578.6 µmol·min/L and 1329.09 µmol·min/L
Tmax [3]: 6 h and 1 h
Cmax (D10.1 SQ 12.2 mg/kg, individual mice M1, M2, M3, read-out: Cmax): 2400 nM and 4880 nM and 5150 nM
AUC0-∞ [4]: 3585.94 µmol·min/L and 2148.41 µmol·min/L
Cl/F [4]: 5.97e-05 L/min and 9.96e-05 L/min
T1/2 [4]: 4.3302 h
AUC0-∞ (D10.1 SQ 12.2 mg/kg, mean): 2867.17 µmol·min/L
Half-life T1/2 (D10.1 SQ 12.2 mg/kg, mean): 3.7563 ± 0.8117 h
AUC(0-t) (D10.1 SQ 12.2 mg/kg, mean n=3): 1879.54 µmol·min/L
clearance (female, Balb/C, mouse, plasma, iv, […], D10.1 IV […], individual mice M1, M2, M3, read-out: CLP): 3.46 mL/min/kg
half-life (female, Balb/C, mouse, plasma, iv, […], D10.1 IV […], individual mice M1, M2, M3, read-out: T1/2): 1.21 h
Vd (female, Balb/C, mouse, plasma, iv, […], D10.1 IV […], individual mice M1, M2, M3, read-out: VSS): 0.32 L/kg
Vd (female, Balb/C, mouse, plasma, iv, […], D10.1 IV […], individual mice M1, M2, M3, read-out: VZ): 0.36 L/kg
half-life (female, Balb/C, mouse, plasma, iv, […], D10.1 IV […], mean n=3, read-out: Half-life T1/2): 1.12 ± 0.113 h
clearance (female, Balb/C, mouse, plasma, iv, […], D10.1 IV […], mean n=3, read-out: Plasma clearance CLP): 3.26 ± 0.37 mL/min/kg
Vd (female, Balb/C, mouse, plasma, iv, […], D10.1 IV […], mean n=3, read-out: Volume of distribution @ steady state VSS): 0.25 ± 0.08 L/kg
Vd (female, Balb/C, mouse, plasma, iv, […], D10.1 IV […], mean n=3, read-out: Volume of distribution during elimination phase VZ): 0.32 ± 0.07 L/kg
level at time molar at 0.25 h (female, Balb/C, mouse, plasma, po, 12.2 mg/kg, D10.1 PO 12.2 mg/kg, 15 min, individual mice M1, M2, M3, read-out: Plasma level): 2220 nM
level at time molar at 2 h (female, Balb/C, mouse, plasma, po, 12.2 mg/kg, D10.1 PO 12.2 mg/kg, 120 min, individual mice M1, M2, M3, read-out: Plasma level): 540 nM
level at time molar at 4 h (female, Balb/C, mouse, plasma, po, 12.2 mg/kg, D10.1 PO 12.2 mg/kg, 240 min, individual mice M1, M2, M3): 130 nM
level at time molar at 6 h (female, Balb/C, mouse, plasma, po, 12.2 mg/kg, D10.1 PO 12.2 mg/kg, 360 min, individual mice M1, M2, M3, read-out: Plasma level): 100 nM
Cmax (female, Balb/C, mouse, plasma, po, 12.2 mg/kg, D10.1 PO 12.2 mg/kg, individual mice M1, M2, M3, read-out: Cmax): 2490 nM
half-life (female, Balb/C, mouse, plasma, po, 12.2 mg/kg, D10.1 PO 12.2 mg/kg, individual mice M1, M2, M3, read-out: T1/2): 0.831 h
Tmax (female, Balb/C, mouse, plasma, po, 12.2 mg/kg, D10.1 PO 12.2 mg/kg, individual mice M1, M2, M3, read-out: Tmax (converted)): 0.5 h
half-life (female, Balb/C, mouse, plasma, po, 12.2 mg/kg, D10.1 PO 12.2 mg/kg, mean n=3, read-out: Half-life T1/2): 1 ± 0.156 h
Cmax (female, Balb/C, mouse, plasma, po, 12.2 mg/kg, D10.1 PO 12.2 mg/kg, mean n=3, read-out: Max concentration Cmax): 2920 ± 630 nM
Tmax (female, Balb/C, mouse, plasma, po, 12.2 mg/kg, D10.1 PO 12.2 mg/kg, mean n=3, read-out: Time of max concentration Tmax (converted)): 0.5 h
bioavailability (female, Balb/C, mouse, plasma, po, 12.2 mg/kg, read-out: Oral bioavailability F): 7.48 ± 1.79%
level at time molar at 6 h (female, Balb/C, mouse, plasma, sc, 12.2 mg/kg, D10.1 SQ 12.2 mg/kg, 360 min, individual mice M1, M3 (M2 ND), read-out: Plasma level): 2400 nM
level at time molar at 24 h (female, Balb/C, mouse, plasma, sc, 12.2 mg/kg, D10.1 SQ 12.2 mg/kg, 1440 min, individual mice M1, M2, M3, read-out: Plasma level): 30 nM
AUC(0-inf) (female, Balb/C, mouse, plasma, sc, D10.1 SQ 12.2 mg/kg, mean): 47.8 µM·h
AUC(0-t) (female, Balb/C, mouse, plasma, sc, D10.1 SQ 12.2 mg/kg, mean n=3, read-out: AUC0-t (converted)): 1880 µmol·min/L
half-life (female, Balb/C, mouse, plasma, subcutaneous, 12.2 mg/kg, D10.1 SQ 12.2 mg/kg, individual mice M2, M3 (M1 NA), read-out: T1/2): 3.18 h
AUC(0-inf) (female, Balb/C, mouse, plasma, D10.1 PO 12.2 mg/kg, mean n=3): 4.67 µM·h
AUC(0-t) (female, Balb/C, mouse, plasma, D10.1 PO 12.2 mg/kg, mean n=3, read-out: AUC0-t (converted)): 270 µmol·min/L
CL/F (female, Balb/C, mouse, plasma, D10.1 PO 12.2 mg/kg, mean n=3, read-out: Apparent clearance Cl/F): 0.785 mL/min
half-life (mouse, in vivo, sc, 12.2 mg/kg, D10.1 after SQ administration, read-out: plasma half-life T1/2 (converted)): 3.75 h
